Data as given in BindingDB's records for patent US20250026748 (Repare Therapeutics, 2025).

Molecular target: DNA polymerase theta (Homo sapiens, UniProt O75417)
Test: Polθ ATPase Enzymatic Assay (0.5 nM Enzyme Concentration)
Description: Following pre-incubation with inhibitors, DNA (Fork C) at 20 nM and ATP at 100 μM are added to start the reaction. Enzymatic reaction proceeds at rt for 180 min ATP consumption is measured using the ADP-Glo assay from Promega.

Chain of DNA polymerase theta (O75417 whole entry): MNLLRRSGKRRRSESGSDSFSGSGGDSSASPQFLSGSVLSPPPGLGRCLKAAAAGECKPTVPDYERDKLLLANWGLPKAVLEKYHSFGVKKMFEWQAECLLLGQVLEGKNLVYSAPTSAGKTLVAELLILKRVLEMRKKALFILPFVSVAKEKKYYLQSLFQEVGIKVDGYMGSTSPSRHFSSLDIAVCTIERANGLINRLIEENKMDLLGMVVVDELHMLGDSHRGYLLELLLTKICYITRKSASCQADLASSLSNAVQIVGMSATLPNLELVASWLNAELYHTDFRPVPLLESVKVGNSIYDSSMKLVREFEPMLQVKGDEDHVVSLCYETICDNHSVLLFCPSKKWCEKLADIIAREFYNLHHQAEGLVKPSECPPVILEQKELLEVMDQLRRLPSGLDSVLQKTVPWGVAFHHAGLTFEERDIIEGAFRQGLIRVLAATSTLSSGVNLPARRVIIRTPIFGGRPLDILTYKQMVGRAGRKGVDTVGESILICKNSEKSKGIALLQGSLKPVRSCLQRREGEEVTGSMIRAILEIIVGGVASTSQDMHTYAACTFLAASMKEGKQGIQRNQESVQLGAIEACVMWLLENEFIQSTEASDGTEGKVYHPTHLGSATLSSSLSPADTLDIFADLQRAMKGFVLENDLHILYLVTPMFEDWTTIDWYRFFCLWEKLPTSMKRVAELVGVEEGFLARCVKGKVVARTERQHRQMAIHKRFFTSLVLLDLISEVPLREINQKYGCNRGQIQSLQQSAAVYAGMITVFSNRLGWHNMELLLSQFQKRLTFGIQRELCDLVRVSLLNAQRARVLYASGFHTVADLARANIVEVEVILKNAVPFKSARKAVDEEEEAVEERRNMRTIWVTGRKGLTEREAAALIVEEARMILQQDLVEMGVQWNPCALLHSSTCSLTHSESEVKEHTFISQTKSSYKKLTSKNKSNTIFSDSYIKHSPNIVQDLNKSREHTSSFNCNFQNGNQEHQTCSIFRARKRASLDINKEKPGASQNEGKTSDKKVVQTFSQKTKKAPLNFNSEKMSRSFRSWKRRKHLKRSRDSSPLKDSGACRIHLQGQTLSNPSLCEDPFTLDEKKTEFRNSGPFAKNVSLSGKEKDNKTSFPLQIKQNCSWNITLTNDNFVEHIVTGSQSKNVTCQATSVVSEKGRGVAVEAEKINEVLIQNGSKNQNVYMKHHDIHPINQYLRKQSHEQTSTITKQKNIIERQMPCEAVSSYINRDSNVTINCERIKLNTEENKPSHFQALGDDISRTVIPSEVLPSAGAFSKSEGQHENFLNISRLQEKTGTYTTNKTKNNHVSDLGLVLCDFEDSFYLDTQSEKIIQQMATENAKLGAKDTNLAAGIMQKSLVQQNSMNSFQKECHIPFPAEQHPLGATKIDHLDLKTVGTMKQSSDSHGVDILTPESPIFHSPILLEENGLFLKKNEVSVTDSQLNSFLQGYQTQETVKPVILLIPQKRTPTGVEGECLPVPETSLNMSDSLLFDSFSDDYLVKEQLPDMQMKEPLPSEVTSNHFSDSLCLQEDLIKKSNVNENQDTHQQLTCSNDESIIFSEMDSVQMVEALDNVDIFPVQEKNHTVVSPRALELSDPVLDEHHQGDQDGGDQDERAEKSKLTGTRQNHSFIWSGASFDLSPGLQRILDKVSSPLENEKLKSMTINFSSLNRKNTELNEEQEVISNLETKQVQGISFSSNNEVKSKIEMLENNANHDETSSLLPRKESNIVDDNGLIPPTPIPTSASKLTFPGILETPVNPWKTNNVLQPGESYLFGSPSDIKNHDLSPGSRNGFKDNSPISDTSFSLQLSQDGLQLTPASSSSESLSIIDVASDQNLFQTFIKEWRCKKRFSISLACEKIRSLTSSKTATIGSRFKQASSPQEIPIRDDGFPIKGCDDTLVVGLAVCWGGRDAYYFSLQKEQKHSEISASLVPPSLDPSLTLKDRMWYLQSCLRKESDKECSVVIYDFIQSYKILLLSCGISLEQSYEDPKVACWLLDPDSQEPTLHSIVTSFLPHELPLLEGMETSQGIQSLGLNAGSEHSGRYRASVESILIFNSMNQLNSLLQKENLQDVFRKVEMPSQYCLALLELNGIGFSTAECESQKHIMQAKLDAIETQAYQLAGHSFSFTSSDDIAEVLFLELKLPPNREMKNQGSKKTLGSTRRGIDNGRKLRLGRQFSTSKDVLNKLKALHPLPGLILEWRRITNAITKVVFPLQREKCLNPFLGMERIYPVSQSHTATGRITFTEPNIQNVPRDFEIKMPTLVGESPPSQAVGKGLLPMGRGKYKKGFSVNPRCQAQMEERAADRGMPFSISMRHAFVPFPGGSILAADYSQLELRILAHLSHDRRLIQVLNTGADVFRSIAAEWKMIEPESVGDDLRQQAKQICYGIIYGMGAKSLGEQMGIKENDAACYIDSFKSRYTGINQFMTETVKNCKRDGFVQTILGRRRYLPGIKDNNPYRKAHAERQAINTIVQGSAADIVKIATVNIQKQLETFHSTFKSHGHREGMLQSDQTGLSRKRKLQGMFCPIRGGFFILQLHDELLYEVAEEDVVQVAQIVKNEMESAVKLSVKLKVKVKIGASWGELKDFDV

SMILES	IC50 [nM]
COc1cnc(Cl)cc1-c1cnccc1C(=O)Nc1ncc(C#CC2CC2)s1 [US20250026748, Compound 38]	1.1
COc1ccc(Cl)cc1-c1cnccc1C(=O)Nc1nnc(C#CC2CC2)s1 [US20250026748, Compound 57]	0.37
COc1ccc(Cl)cc1-c1cn(Cc2nccs2)c(=O)cc1C(=O)Nc1nnc(C#CC2CC2)s1 [US20250026748, Compound 63]	1.9
COc1cnc(C(F)F)cc1-c1nc(-c2ccn(C)n2)cnc1C(=O)Nc1nnc(C#CC2CC2)s1 [US20250026748, Compound 140]	38
COc1cnc(Cl)cc1-c1cc(-c2nnc(C)o2)ccc1C(=O)Nc1nnc(C#CC2CC2)s1 [US20250026748, Compound 305]	0.38
COc1ccc(C(F)(F)F)cc1-c1cn(C)c(=O)cc1C(=O)Nc1nnc(C#CC2CCOC2)s1 (configuration not stated) [US20250026748, Compound 340]	12
COc1cnc(C(F)F)cc1-c1cc(-c2ccn(C)n2)ncc1C(=O)Nc1nnc(C#Cc2cc(C)[nH]n2)s1 [US20250026748, Compound 370]	2.9
